Experiment [1] concerns the target Calmodulin (Saccharomyces cerevisiae S288c) (UniProt P06787). Description: Inhibition of Myo2-GFP binding to Saccharomyces cerevisiae BY4741 calmodulin at 50 ug/ml by Western blot analysis.
Experiment [2] deals with Cryptococcus neoformans. Description: Antifungal activity against Cryptococcus neoformans KN99alpha after 24 hrs by CLSI method. The class given is functional.
The test system of experiment [3] is Candida albicans. The experiment can be described thus: Antifungal activity against Candida albicans SC5314 after 24 hrs by CLSI method. To be noted: SC5314, 24 h. The class given is functional.
The next experiment has as its system Nakaseomyces glabratus. Description: Antifungal activity against Candida glabrata MR084-G12 after 24 hrs by CLSI method. To be noted: MR084-G12, 24 h. The class given is functional.
The subject of experiment [4] is Saccharomyces cerevisiae. The experiment can be described thus: Antifungal activity against Saccharomyces cerevisiae BY4741 after 24 hrs by CLSI method. The class given is functional. As to conditions: BY4741, 24 h.
The subject of a further experiment is Candida tropicalis. Description: Antifungal activity against Candida tropicalis MR064-H after 24 hrs by CLSI method. The class given is functional.
The next experiment concerns Candida parapsilosis. Description: Antifungal activity against Candida parapsilosis R058-G12 after 24 hrs by CLSI method. As to conditions: Lodderomyces parapsilosis, R058-G12, 24 h. The class given is functional.
Experiment [5] deals with Candida albicans. Description: Antifungal activity against Candida albicans ATCC 90028 after 24 hrs by CLSI method. The class given is functional. As to conditions: ATCC 90028, 24 h.
In the next experiment the test system is Candida dubliniensis. The experiment can be described thus: Antifungal activity against Candida dubliniensis CD1 after 24 hrs by CLSI method. The class given is functional. To be noted: CD1, 24 h.
The test system of experiment [6] is Cryptococcus neoformans. Description: Antifungal activity against Cryptococcus neoformans NYS3-81 after 24 hrs by CLSI method. The class given is functional. To be noted: NYS3-81, 24 h.
For experiment [7], the system named is Saccharomyces cerevisiae. Description: Antifungal activity against Saccharomyces cerevisiae BY4741 assessed as inhibition fungal bud formation at 8 ug/ml. The class given is functional, organism-based.
For experiment [8], the system named is Candida albicans. Description: Antifungal activity against Candida albicans SC5314 infected in BALB/c mouse assessed as fungal count per gram of kidney at 200 mg/kg, po administered for 7 days prior to fungal infection. The class given is functional.
In experiment [9] the test system is Saccharomyces cerevisiae. Description: Antifungal activity against Saccharomyces cerevisiae BY4741 assessed as appearance of unbudded cells with more than one nucleus at 8 ug/ml. The class given is functional.
Experiment [10] concerns Saccharomyces cerevisiae. The experiment can be described thus: Antifungal activity against Saccharomyces cerevisiae BY4741 expressing CMD1 at 62 to 125 ug/mL after 3 days by photographic analysis. The class given is functional, organism-based.
In experiment [11] the test system is Saccharomyces cerevisiae. Description: Antifungal activity against Saccharomyces cerevisiae BY4741 expressing PKC1 at 62 to 125 ug/mL after 3 days by photographic analysis. The class given is functional, organism-based.
Experiment [12] has as its system Candida albicans. Description: Antifungal activity against Candida albicans SC5314 at 16 ug/ml after 2 hrs by alexa fluor-phalloidin staining. The class given is functional, organism-based.
Experiment [13] concerns Saccharomyces cerevisiae. The experiment can be described thus: Antifungal activity against Saccharomyces cerevisiae BY4741 at 8 ug/ml by alexa fluor-phalloidin staining. The class given is functional, organism-based.

From ChEMBL document CHEMBL1649551, “Antifungal activity of tamoxifen: in vitro and in vivo activities and mechanistic characterization” (2009) come the findings set out here.

In brackets after ≈: the same amount, converted by molar mass. Activity calls are given as the source filed them. The calls are words filed in the database; no cut-off is given here.

Sequence of Calmodulin (Saccharomyces cerevisiae S288c) (P06787 whole entry): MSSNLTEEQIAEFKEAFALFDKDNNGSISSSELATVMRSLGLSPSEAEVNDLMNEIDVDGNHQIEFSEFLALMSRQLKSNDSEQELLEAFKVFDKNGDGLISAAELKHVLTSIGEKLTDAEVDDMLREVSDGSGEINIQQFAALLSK

On to `CN1CCN(CCCN2c3ccccc3Sc3ccc(Cl)cc32)CC1`, for which the inhibition entry in experiment [1] was “Active”.
A word on the MIC: it is the least concentration at which growth counts as inhibited. Low readings indicate inhibition by little substance, high ones a need for much substance. As for `CCN(CC)CCOc1ccc(C(=C(Cl)c2ccccc2)c2ccccc2)cc1` [CLOMIPHENE], the MIC against Cryptococcus neoformans [2] was 64 µg/mL (≈ 158 µM); with Candida albicans [3], 32 µg/mL (≈ 78.8 µM); with Nakaseomyces glabratus, 32 µg/mL (≈ 78.8 µM); in the experiment on Saccharomyces cerevisiae [4], 18 µg/mL (≈ 44.3 µM); in the experiment with Candida tropicalis, 64 µg/mL (≈ 158 µM); in the experiment with Candida parapsilosis, 64 µg/mL (≈ 158 µM). For the same compound, the values for the minimum inhibitory concentration (MIC) in the experiment with Candida albicans [5], in the experiment with Candida dubliniensis and in the experiment on Cryptococcus neoformans [6] were above 64 µg/mL, 32 µg/mL (≈ 78.8 µM) and 64 µg/mL (≈ 158 µM), respectively.
With `CC/C(=C(\c1ccccc1)c1ccc(OCCN(C)C)cc1)c1ccccc1` [TAMOXIFEN], the minimal inhibitory concentration (MIC) was 64 µg/mL (≈ 172 µM) in the experiment with Cryptococcus neoformans [2]; 32 µg/mL (≈ 86.1 µM) against Candida albicans [3]; 8 µg/mL (≈ 21.5 µM) against Nakaseomyces glabratus; 12 µg/mL (≈ 32.3 µM) in the experiment with Saccharomyces cerevisiae [4]; 32 µg/mL (≈ 86.1 µM) against Candida tropicalis; 64 µg/mL (≈ 172 µM) against Candida parapsilosis. The MIC against Candida albicans [5] came to 32 µg/mL (≈ 86.1 µM); against Candida dubliniensis, 16 µg/mL (≈ 43.1 µM); against Cryptococcus neoformans [6] it was 64 µg/mL (≈ 172 µM). Moreover, the outcome in the experiment on Saccharomyces cerevisiae [7], in the experiment on Saccharomyces cerevisiae [10], in the experiment with Saccharomyces cerevisiae [11], with Candida albicans [12] and with Saccharomyces cerevisiae [13] was Active. Moreover, the log10cfu in the experiment with Candida albicans [8] is 1.5. Moreover, in the experiment with Saccharomyces cerevisiae [9], the Activity is recorded as 15%. Also, in experiment [1], the inhibition entry is “Active”.
